This passage reports IC50 results from patent US7888363B2, “Viral polymerase inhibitors” (Boehringer Ingelheim International GmbH, priority 2003, dated 2011).

The target of one assay is hepatitis C virus RNA dependant polymerase (NS5B) (Hepatitis C virus genotype 1b, UniProt P26663). Briefly: Inhibition of NS5B RNA dependent RNA polymerase activity. To be noted: Table 1; HCV NS5B polymerase. It counts as biochemical. The method, then: A suitable assay is described in the examples.
Sequence of hepatitis C virus RNA dependant polymerase (NS5B) (P26663 2420-3010): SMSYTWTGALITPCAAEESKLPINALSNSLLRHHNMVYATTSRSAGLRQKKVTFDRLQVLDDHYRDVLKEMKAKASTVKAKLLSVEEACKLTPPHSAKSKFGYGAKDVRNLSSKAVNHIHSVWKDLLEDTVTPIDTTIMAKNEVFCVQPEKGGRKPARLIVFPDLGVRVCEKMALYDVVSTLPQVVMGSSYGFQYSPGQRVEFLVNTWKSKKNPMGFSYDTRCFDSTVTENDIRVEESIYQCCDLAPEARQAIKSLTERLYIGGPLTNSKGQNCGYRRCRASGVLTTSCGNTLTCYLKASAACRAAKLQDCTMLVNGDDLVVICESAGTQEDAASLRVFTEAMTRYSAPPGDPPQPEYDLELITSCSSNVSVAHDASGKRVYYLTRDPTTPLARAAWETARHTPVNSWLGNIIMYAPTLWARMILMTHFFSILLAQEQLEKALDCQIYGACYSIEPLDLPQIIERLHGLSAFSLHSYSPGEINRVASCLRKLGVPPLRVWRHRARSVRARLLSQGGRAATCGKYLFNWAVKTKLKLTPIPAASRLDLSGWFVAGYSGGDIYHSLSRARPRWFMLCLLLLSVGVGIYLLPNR
Inhibition of NS5B RNA Dependent RNA Polymerase Activity
The compounds of the invention were tested for inhibitory activity against the hepatitis C virus RNA dependant polymerase (NS5B), according to protocol described in WO 03/010141
Turning to `CC(C)(C)C(=O)Cn1c(-c2ccoc2)c(C2CCCCC2)c2ccc(C(=O)O)cc21` [Example 1001], the IC50 was in the range of 200 to 1000 nM.

For `CN1CCCN(C(=O)Cn2c(-c3ccoc3)c(C3CCCCC3)c3ccc(C(=O)O)cc32)CC1` [Example 1003], the IC50 is under 200 nM.

The compound `CN(CCc1ccncc1)C(=O)Cn1c(-c2ccoc2)c(C2CCCCC2)c2ccc(C(=O)O)cc21` [Example 1004] showed an IC50 of under 200 nM.

`CCN(Cc1ccncc1)C(=O)Cn1c(-c2ccoc2)c(C2CCCCC2)c2ccc(C(=O)O)cc21` [Example 1005] showed an IC50 of 200 to 1000 nM.

`CC(C)CN(C)C(=O)Cn1c(-c2ccoc2)c(C2CCCCC2)c2ccc(C(=O)O)cc21` [Example 1006] displayed an IC50 of 200 to 1000 nM.

Compound `CCN(CC)CCN(CC)C(=O)Cn1c(-c2ccoc2)c(C2CCCCC2)c2ccc(C(=O)O)cc21` [Example 1007] had an IC50 of under 200 nM.

As to `CCCN(C)C(=O)Cn1c(-c2ccoc2)c(C2CCCCC2)c2ccc(C(=O)O)cc21` [Example 1008], the IC50 was under 200 nM.

The compound `O=C(Cn1c(-c2ccoc2)c(C2CCCCC2)c2ccc(C(=O)O)cc21)NCCCN1CCOCC1` [Example 1009] showed an IC50 of 200 to 1000 nM.

Turning to `O=C(O)c1ccc2c(C3CCCCC3)c(-c3ccoc3)n(CC(=O)N3CCC(N4CCCCC4)CC3)c2c1` [Example 1010], the IC50 was under 200 nM.

The compound `CCCN(CCC)C(=O)Cn1c(-c2ccoc2)c(C2CCCCC2)c2ccc(C(=O)O)cc21` [Example 1011] registered an IC50 of 200 to 1000 nM.

As for `O=C(O)c1ccc2c(C3CCCCC3)c(-c3ccoc3)n(CC(=O)N3CCSCC3)c2c1` [Example 1012], the IC50 was under 200 nM.

Turning to `CS(=O)(=O)NC(=O)Cn1c(-c2ccoc2)c(C2CCCCC2)c2ccc(C(=O)O)cc21` [Example 1013], the IC50 lay within 200 to 1000 nM.

`COCCN(CCOC)C(=O)Cn1c(-c2ccco2)c(C2CCCCC2)c2ccc(C(=O)O)cc21` [Example 1014] showed an IC50 of 200 to 1000 nM.

As for `CCCN(CCOC)C(=O)Cn1c(-c2ccoc2)c(C2CCCCC2)c2ccc(C(=O)O)cc21` [Example 1015], the IC50 lay within 200 to 1000 nM.

In turn, `CCN(CC)C1CCN(C(=O)Cn2c(-c3ccoc3)c(C3CCCCC3)c3ccc(C(=O)O)cc32)C1` (stereo not drawn) [Example 1016] displayed an IC50 of under 200 nM.

The compound `CCN(CCOC)C(=O)Cn1c(-c2ccoc2)c(C2CCCCC2)c2ccc(C(=O)O)cc21` [Example 1017] showed an IC50 of under 200 nM.

As to `O=C(O)c1ccc2c(C3CCCCC3)c(-c3ccoc3)n(CC(=O)N3CC[C@@H]4CCCC[C@@H]4C3)c2c1` [Example 1018], the IC50 was in the range of 1000 to 10000 nM.

Compound `CN(C)CCCN(C)C(=O)Cn1c(-c2ccoc2)c(C2CCCCC2)c2ccc(C(=O)O)cc21` [Example 1019] had an IC50 of under 200 nM.

With `CC1CN(C(=O)Cn2c(-c3ccoc3)c(C3CCCCC3)c3ccc(C(=O)O)cc32)CC(C)O1` (stereo not drawn) [Example 1020], the IC50 is under 200 nM.

Turning to `CCN(CC)CCN(C)C(=O)Cn1c(-c2ccoc2)c(C2CCCCC2)c2ccc(C(=O)O)cc21` [Example 1021], the IC50 is under 200 nM.

Turning to `CCN(CCN(C)C)C(=O)Cn1c(-c2ccoc2)c(C2CCCCC2)c2ccc(C(=O)O)cc21` [Example 1022], the IC50 was 200 to 1000 nM.

With `O=C(O)c1ccc2c(C3CCCCC3)c(-c3ccccc3)n(CC(=O)N3CCOCC3)c2c1` [Example 1023], the IC50 is under 200 nM.

As to `O=C(O)c1ccc2c(C3CCCCC3)c(-c3ccccc3)n(CC(=O)N3CCC(N4CCCC4)CC3)c2c1` [Example 1024], the IC50 was under 200 nM.

`CN(C)C(=O)Cn1c(-c2ccccc2)c(C2CCCCC2)c2ccc(C(=O)O)cc21` [Example 1025] gave an IC50 of under 200 nM.

Compound `O=C(O)c1ccc2c(C3CCCCC3)c(-c3ccsc3)n(CC(=O)N3CCOCC3)c2c1` [Example 1027] gave an IC50 of under 200 nM.

In turn, `CN(C)C(=O)Cn1c(-c2ccsc2)c(C2CCCCC2)c2ccc(C(=O)O)cc21` [Example 1028] showed an IC50 of under 200 nM.

In turn, `O=C(O)c1ccc2c(C3CCCCC3)c(-c3ccco3)n(CC(=O)N3CCOCC3)c2c1` [Example 1030] yielded an IC50 of under 200 nM.

On to `CN(C)C(=O)Cn1c(-c2ccco2)c(C2CCCCC2)c2ccc(C(=O)O)cc21` [Example 1031], for which the IC50 was under 200 nM.

Take `CC(C)NC(=O)Cn1c(-c2ccco2)c(C2CCCCC2)c2ccc(C(=O)O)cc21` [Example 1032]: the IC50 was in the range of 200 to 1000 nM.

`O=C(O)c1ccc2c(C3CCCCC3)c(-c3cccs3)n(CC(=O)N3CCOCC3)c2c1` [Example 1033] returned an IC50 of under 200 nM.

`O=C(O)c1ccc2c(C3CCCCC3)c(-c3cccs3)n(CC(=O)N3CCC(N4CCCC4)CC3)c2c1` [Example 1034] showed an IC50 of under 200 nM.

On to `CN(C)C(=O)Cn1c(-c2cccs2)c(C2CCCCC2)c2ccc(C(=O)O)cc21` [Example 1035], for which the IC50 was under 200 nM.

The compound `CC(C)NC(=O)Cn1c(-c2cccs2)c(C2CCCCC2)c2ccc(C(=O)O)cc21` [Example 1036] registered an IC50 of 200 to 1000 nM.

Take `O=C(O)c1ccc2c(C3CCCCC3)c(-c3ccsc3)n(CC(=O)N3CCC(N4CCCC4)CC3)c2c1` [Example 1037]: the IC50 is under 200 nM.

Regarding `O=C(O)c1ccc2c(C3CCCCC3)c(-c3ccco3)n(CC(=O)N3CCC(N4CCCC4)CC3)c2c1` [Example 1038], the IC50 was under 200 nM.

Consider `CN(C)C(=O)Cn1c(-c2cccn2C)c(C2CCCCC2)c2ccc(C(=O)O)cc21` [Example 1039], for which the IC50 lay within 200 to 1000 nM.

In turn, `O=C(O)c1ccc2c(C3CCCCC3)c(-c3csc(N4CCCCC4)n3)n(CC(=O)N3CCOCC3)c2c1` [Example 1040] yielded an IC50 of 200 to 1000 nM.

For `CC(C)(C)Nc1nc(-c2c(C3CCCCC3)c3ccc(C(=O)O)cc3n2CC(=O)N2CCOCC2)cs1` [Example 1041], the IC50 lay in the range of 200 to 1000 nM.

Regarding `O=C(O)c1ccc2c(C3CCCCC3)c(-c3cc4ccccc4s3)n(CC(=O)N3CCOCC3)c2c1` [Example 1042], the IC50 is 200 to 1000 nM.

Regarding `CN(C)C(=O)Cn1c(-c2ccoc2)c(C2CCCC2)c2ccc(C(=O)O)cc21` [Example 1044], the IC50 is under 200 nM.

In turn, `O=C(O)c1ccc2c(C3CCCCC3)c(-c3cnccn3)n(CC(=O)N3CCC(N4CCCC4)CC3)c2c1` [Example 1045] had an IC50 of under 200 nM.

In turn, `CN(C)C(=O)Cn1c(-c2cc3ccccc3s2)c(C2CCCCC2)c2ccc(C(=O)O)cc21` [Example 1046] had an IC50 of 1000 to 10000 nM.

In the case of `O=C(O)c1ccc2c(C3CCCCC3)c(-c3csc4ccccc34)n(CC(=O)N3CCOCC3)c2c1` [Example 1047], the IC50 was 1000 to 10000 nM.

`O=C(O)c1ccc2c(C3CCCCC3)c(-c3csc4ccccc34)n(CC(=O)N3CCC(N4CCCC4)CC3)c2c1` [Example 1048] had an IC50 of 200 to 1000 nM.

`O=C(O)c1ccc2c(C3CCCCC3)c(-c3cc4ccccc4s3)n(CC(=O)N3CCC(N4CCCC4)CC3)c2c1` [Example 1049]: the IC50 lay within 200 to 1000 nM.

Take `Nc1cccc(-c2c(C3CCCCC3)c3ccc(C(=O)O)cc3n2CC(=O)N2CCC(N3CCCC3)CC2)n1` [Example 1050]: the IC50 was under 200 nM.

Regarding `CC(C)(NC(=O)Cn1c(-c2ccoc2)c(C2CCCCC2)c2ccc(C(=O)O)cc21)C(=O)Nc1ccc(/C=C/C(=O)O)cc1` [Example 1051], the IC50 was under 200 nM.

`CC(C)(NC(=O)Cn1c(-c2ccoc2)c(C2CCCCC2)c2ccc(C(=O)O)cc21)C(=O)Nc1ccc(-c2nc(C(=O)O)cs2)cc1` [Example 1052]: the IC50 was under 200 nM.

Take `CC(C)(NC(=O)Cn1c(-c2ccoc2)c(C2CCCCC2)c2ccc(C(=O)O)cc21)C(=O)Nc1ccc(-c2ccc(C(=O)O)o2)cc1` [Example 1053]: the IC50 was under 200 nM.

Turning to `Cn1c(C(=O)O)cc2cc(NC(=O)C(C)(C)NC(=O)Cn3c(-c4ccoc4)c(C4CCCCC4)c4ccc(C(=O)O)cc43)ccc21` [Example 1054], the IC50 is under 200 nM.

Consider `O=C(Cn1c(-c2ccoc2)c(C2CCCCC2)c2ccc(C(=O)O)cc21)N[C@@H](Cc1ccc(O)cc1)C(=O)O` [Example 1055], for which the IC50 is under 200 nM.

As to `O=C(Cn1c(-c2ccoc2)c(C2CCCCC2)c2ccc(C(=O)O)cc21)NCc1ccco1` [Example 1056], the IC50 lay within 200 to 1000 nM.

Compound `NC(=O)[C@@H]1CCCN1C(=O)Cn1c(-c2ccoc2)c(C2CCCCC2)c2ccc(C(=O)O)cc21` [Example 1057] displayed an IC50 of under 200 nM.

In the case of `O=C(O)c1ccc2c(C3CCCCC3)c(-c3ccoc3)n(CC(=O)N3CCC(C(=O)O)CC3)c2c1` [Example 1058], the IC50 was under 200 nM.

The compound `O=C(Cn1c(-c2ccoc2)c(C2CCCCC2)c2ccc(C(=O)O)cc21)NNC(=O)c1ccncc1` [Example 1059] came in with an IC50 of under 200 nM.

Take `O=C(Cn1c(-c2ccoc2)c(C2CCCCC2)c2ccc(C(=O)O)cc21)Nc1ccccc1` [Example 1060]: the IC50 was in the range of 200 to 1000 nM.

`O=C(Cn1c(-c2ccoc2)c(C2CCCCC2)c2ccc(C(=O)O)cc21)Nc1ccc(C(=O)O)cc1` [Example 1061] came in with an IC50 of 200 to 1000 nM.

On to `CNC(=O)Cn1c(-c2ccoc2)c(C2CCCCC2)c2ccc(C(=O)O)cc21` [Example 1062], for which the IC50 is 200 to 1000 nM.

Compound `O=C(Cn1c(-c2ccoc2)c(C2CCCCC2)c2ccc(C(=O)O)cc21)NCc1ccccc1` [Example 1063] yielded an IC50 of 200 to 1000 nM.

`COc1ccc(CNC(=O)Cn2c(-c3ccoc3)c(C3CCCCC3)c3ccc(C(=O)O)cc32)cc1` [Example 1064]: the IC50 fell in the range of 1000 to 10000 nM.

Compound `NC(=O)Cn1c(-c2ccoc2)c(C2CCCCC2)c2ccc(C(=O)O)cc21` [Example 1065] showed an IC50 of 200 to 1000 nM.

In the case of `O=C(O)c1ccc2c(C3CCCCC3)c(-c3ccoc3)n(CC(=O)N3CCC[C@H]3C(=O)O)c2c1` [Example 1066], the IC50 is under 200 nM.

Consider `O=C(O)CNC(=O)Cn1c(-c2ccoc2)c(C2CCCCC2)c2ccc(C(=O)O)cc21` [Example 1067], for which the IC50 is under 200 nM.

`O=C(O)CNNC(=O)Cn1c(-c2ccoc2)c(C2CCCCC2)c2ccc(C(=O)O)cc21` [Example 1068] came in with an IC50 of under 200 nM.

As to `NS(=O)(=O)c1ccc(CNC(=O)Cn2c(-c3ccoc3)c(C3CCCCC3)c3ccc(C(=O)O)cc32)cc1` [Example 1069], the IC50 was in the range of 200 to 1000 nM.

Still in this assay, the particulars now being: Table 4; class ranges.
Regarding `CN1CCN(C(=O)Cn2c(-c3ccoc3)c(C3CCCCC3)c3ccc(C(=O)NC4CC4c4ccccc4)cc32)CC1` (racemic) [Example 4038], the 50% inhibitory concentration (IC50) lay within 200 to 1000 nM.

As a reminder, the IC50 is the concentration that gives 50% inhibition. A lower IC50 goes with higher potency.
